Source: patent publication US20090226398A1, “ANTI-VIRAL COMPOUNDS, COMPOSITIONS, AND METHODS OF USE” (Genelabs Technologies, Inc., priority 2008, published 2009)

Tested on: HCV replication
Experiment: Replicon Assay (Huh-lucubineo-ET cells, luciferase readout)
Type: cell-based
Settings: Hepatitis C virus; ET (Huh-lucubineo-ET) HCV replicon cell line; luciferase activity 48-72 hours after compound addition; 6 dilutions
Method: A cell line, ET (Huh-lucubineo-ET) was used for screening of compounds of the present invention for inhibition of HCV replication. The ET cell line was stably transfected with RNA transcripts harboring a I389luc-ubi-neo/NS3-3′/ET; replicon with firefly luciferase-ubiquitin-neomycin phosphotransferase fusion protein and EMCV-IRES driven NS3-5B polyprotein containing the cell culture adaptive mutations (E1202G; T1280I; K1846T) (Krieger at al, 2001 and unpublished). The ET cells were grown in DMEM, supplemented with 10% fetal calf serum, 2 mM Glutamine, Penicillin (100 IU/mL)/Streptomycin (100 μg/mL), 1× nonessential amino acids, and 250 μg/mL G418 (“Geneticin”). They were all available through Life Technologies (Bethesda, Md.). The cells were plated at 0.5−1.0×10^4 cells/well in the 96 well plates and incubated for 24 hrs before adding the test compounds. The compounds were then added to the cells to achieve a final concentration of 5 or 50 μM. Luciferase activity was measured 48-72 hours later by adding a lysis buffer and the substrate (Catalog number Glo-lysis buffer E2661 and Bright-Glo luciferase system E2620 Promega, Madison, Wis.). Cells should not be too confluent during the assay. Percent inhibition of replication was plotted relative to no compound control. For EC50 (effective concentration at which 50% of the maximum inhibition is observed) determinations, 6 dilutions of each compound were used. Compounds were typically diluted 3 fold to span a concentration range of 250 fold. EC50 and similarly TC50 values were calculated by fitting % inhibition at each concentration to the following equation:
% inhibition=100%/[(EC50/[I])^b+1]
where b is Hill's coefficient.

## Fc1ccccc1-c1nc2cnn(Cc3ccc(OC(F)(F)F)cc3)cc-2n1 [Compound 101, 2-(2-Fluoro-phenyl)-5-(4-trifluoromethoxy-benzyl)-5H-imidazo[4,5-d]pyridazine]
  EC50: ≥ 50 µM

## Fc1ccccc1-c1nc2cnn(Cc3ccc(Cl)cc3)cc-2n1 [Compound 102, 5-(4-Chloro-benzyl)-2-(2-fluoro-phenyl)-5H-imidazo[4,5-d]pyridazine]
  EC50: ≥ 50 µM

## Fc1cccc(-c2nc3cnn(Cc4ccc(-c5ccc(C(F)(F)F)cc5C(F)(F)F)nn4)cc-3n2)c1F [Compound 104, 5-[6-(2,4-Bis-trifluoromethyl-phenyl)-pyridazin-3-ylmethyl]-2-(2,3-difluoro-phenyl)-5H-imidazo[4,5-d]pyridazine]
  EC50: 0.06 µM

## COc1ccc(-c2ccc(Cn3cc4nc(-c5cccc(F)c5F)nc-4cn3)nn2)cc1 [Compound 105, 2-(2,3-Difluoro-phenyl)-5-[6-(4-methoxy-phenyl)-pyridazin-3-ylmethyl]-5H-imidazo[4,5-d]pyridazine]
  EC50: 7.4 µM

## CCCOc1ccc(-c2ccc(Cn3cc4nc(-c5cccc(F)c5F)nc-4cn3)cc2)cc1 [Compound 109, 2-(2,3-Difluoro-phenyl)-5-(4′-propoxy-biphenyl-4-ylmethyl)-5H-imidazo[4,5-d]pyridazine]
  EC50: 30 µM

## CCCCc1ccc(-c2ccc(Cn3cc4nc(-c5cccc(F)c5F)nc-4cn3)nn2)cc1 [Compound 115, 5-[6-(4-Butyl-phenyl)-pyridazin-3-ylmethyl]-2-(2,3-difluoro-phenyl)-5H-imidazo[4,5-d]pyridazine]
  EC50: 1.47 µM

## Fc1cccc(-c2nc3cnn(Cc4ccc(-c5ccc(C(F)(F)F)cc5)nn4)cc-3n2)c1F [Compound 116, 2-(2,3-Difluoro-phenyl)-5-[6-(4-trifluoromethyl-phenyl)-pyridazin-3-ylmethyl]-5H-imidazo[4,5-d]pyridazine]
  EC50: ≥ 50 µM

## Fc1cccc(-c2nc3cnn(Cc4ccc(-c5ccc(OC(F)(F)F)cc5)nn4)cc-3n2)c1F [Compound 119, 2-(2,3-Difluoro-phenyl)-5-[6-(4-trifluoromethoxy-phenyl)-pyridazin-3-ylmethyl]-5H-imidazo[4,5-d]pyridazine]
  EC50: 3.1 µM

## Fc1cccc(-c2nc3cnn(Cc4ccc(-c5ccc(C(F)(F)F)cc5C(F)(F)F)cn4)cc-3n2)c1F [Compound 129, 5-[5-(2,4-Bis-trifluoromethyl-phenyl)-pyridin-2-ylmethyl]-2-(2,3-difluoro-phenyl)-5H-imidazo[4,5-d]pyridazine]
  EC50: 0.019 µM

## Fc1cccc(-c2nc3cnn(Cc4ccc(-c5ccc(C(F)(F)F)cc5C(F)(F)F)nc4)cc-3n2)c1F [Compound 130, 5-[6-(2,4-Bis-trifluoromethyl-phenyl)-pyridin-3-ylmethyl]-2-(2,3-difluoro-phenyl)-5H-imidazo[4,5-d]pyridazine]
  EC50: 0.008 µM

## COc1ccc(-c2ccc(Cn3cc4nc(-c5cccc(F)c5F)nc-4cn3)c([N+](=O)[O-])c2)c(C(F)(F)F)c1 [Compound 201, 2-(2,3-Difluoro-phenyl)-5-(4-methoxy-3-nitro-2-trifluoromethyl-biphenyl-4-ylmethyl)-5H-imidazo[4,5-d]pyridazine]
  EC50: 0.05 µM

## COc1cccc(-c2ccc(Cn3cc4nc(-c5cccc(F)c5F)nc-4cn3)nn2)c1OC [Compound 202, 2-(2,3-Difluoro-phenyl)-5-[6-(2,3-dimethoxy-phenyl)-pyridazin-3-ylmethyl]-5H-imidazo[4,5-d]pyridazine]
  EC50: ≥ 50 µM

## Fc1cccc(-c2nc3cnn(Cc4ccc(-c5ccc(-c6cn[nH]c6)cc5C(F)(F)F)nn4)cc-3n2)c1F [Compound 203, 2-(2,3-Difluoro-phenyl)-5-{6-[4-(1H-pyrazol-4-yl)-2-trifluoromethyl-phenyl]-pyridazin-3-ylmethyl}-5H-imidazo[4,5-d]pyridazine]
  EC50: 21 µM

## Fc1cccc(-c2nc3cnn(Cc4ccc(-c5ccc(-c6cccnc6)cc5C(F)(F)F)nn4)cc-3n2)c1F [Compound 204, 2-(2,3-Difluoro-phenyl)-5-[6-(4-pyridin-3-yl-2-trifluoromethyl-phenyl)-pyridazin-3-ylmethyl]-5H-imidazo[4,5-d]pyridazine]
  EC50: 0.656 µM

## Fc1cccc(-c2nc3cnn(Cc4ccc(-c5ccc(-c6ccccc6)cc5C(F)(F)F)nn4)cc-3n2)c1F [Compound 205, 2-(2,3-Difluoro-phenyl)-5-[6-(3-trifluoromethyl-biphenyl-4-yl)-pyridazin-3-ylmethyl]-5H-imidazo[4,5-d]pyridazine]
  EC50: 0.14 µM

## CCc1ccc(-c2ccc(Cn3cc4nc(-c5cccc(F)c5F)nc-4cn3)nn2)cc1 [Compound 206, 2-(2,3-Difluoro-phenyl)-5-[6-(4-ethyl-phenyl)-pyridazin-3-ylmethyl]-5H-imidazo[4,5-d]pyridazine]
  EC50: ≥ 50 µM

## COc1ccc(-c2ccc(Cn3cc4nc(-c5cccc(F)c5F)nc-4cn3)nn2)c(OC)c1 [Compound 207, 2-(2,3-Difluoro-phenyl)-5-[6-(2,4-dimethoxy-phenyl)-pyridazin-3-ylmethyl]-5H-imidazo[4,5-d]pyridazine]
  EC50: ≥ 50 µM

## CC(C)Cc1ccc(-c2ccc(Cn3cc4nc(-c5cccc(F)c5F)nc-4cn3)nn2)cc1 [Compound 208, 2-(2,3-Difluoro-phenyl)-5-[6-(4-isobutyl-phenyl)-pyridazin-3-ylmethyl]-5H-imidazo[4,5-d]pyridazine]
  EC50: ≥ 50 µM

## CC(C)Oc1ccc(-c2ccc(Cn3cc4nc(-c5cccc(F)c5F)nc-4cn3)nn2)cc1 [Compound 209, 2-(2,3-Difluoro-phenyl)-5-[6-(4-isopropoxy-phenyl)-pyridazin-3-ylmethyl]-5H-imidazo[4,5-d]pyridazine]
  EC50: ≥ 50 µM

## Fc1cccc(-c2nc3cnn(Cc4ccc(-c5ccc(-c6ccncc6)cc5C(F)(F)F)nn4)cc-3n2)c1F [Compound 210, 2-(2,3-Difluoro-phenyl)-5-[6-(4-pyridin-4-yl-2-trifluoromethyl-phenyl)-pyridazin-3-ylmethyl]-5H-imidazo[4,5-d]pyridazine]
  EC50: 0.735 µM

## Cc1ccc(-c2ccc(Cn3cc4nc(-c5cccc(F)c5F)nc-4cn3)nn2)cc1 [Compound 211, 2-(2,3-Difluoro-phenyl)-5-(6-p-tolyl-pyridazin-3-ylmethyl)-5H-imidazo[4,5-d]pyridazine]
  EC50: 3.47 µM

## COc1ccc(-c2ccc(Cn3cc4nc(-c5ccccc5F)nc-4cn3)cn2)c(C(F)(F)F)c1 [Compound 212, 2-(2-Fluoro-phenyl)-5-[6-(4-methoxy-2-trifluoromethyl-phenyl)-pyridin-3-ylmethyl]-5H-imidazo[4,5-d]pyridazine]
  EC50: 0.081 µM

## COCc1ccc(-c2ccc(Cn3cc4nc(-c5cccc(F)c5F)nc-4cn3)nn2)cc1 [Compound 213, 2-(2,3-Difluoro-phenyl)-5-[6-(4-methoxymethyl-phenyl)-pyridazin-3-ylmethyl]-5H-imidazo[4,5-d]pyridazine]
  EC50: ≥ 50 µM

## CC(C)(C)OCc1ccc(-c2ccc(Cn3cc4nc(-c5cccc(F)c5F)nc-4cn3)nn2)cc1 [Compound 214, 5-[6-(4-tert-Butoxymethyl-phenyl)-pyridazin-3-ylmethyl]-2-(2,3-difluoro-phenyl)-5H-imidazo[4,5-d]pyridazine]
  EC50: 47.4 µM

## CC(C)(C)c1ccc(-c2ccc(Cn3cc4nc(-c5cccc(F)c5F)nc-4cn3)nn2)cc1 [Compound 215, 5-[6-(4-tert-Butyl-phenyl)-pyridazin-3-ylmethyl]-2-(2,3-difluoro-phenyl)-5H-imidazo[4,5-d]pyridazine]
  EC50: 11.6 µM
